# According to patent publication US6358885B1, “Substituted phenylheterocyclic herbicides” (Mississippi State University, priority 1992, dated 2002):
# Tests used:
# Experiment in all cases: Test B preemergence/postemergence greenhouse plant response rating 0 to 10
# barnyardgrass = assay type: in vivo, Echinochloa crus-galli; conditions: 0 to 10 scale
# Method in brief: (§1)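 Both application timings were run together: seeds got compound preemergence, and established seedlings (two to eighteen cm) got it postemergence. Non-phytotoxic solvent carried the chemical. Ratings are visual, versus controls, at twelve to sixteen days.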
# morningglory = assay type: in vivo, Ipomoea hederacea; conditions: 0 to 10 scale
# Method in brief: as §1
# rape = assay type: in vivo, Brassica napus; conditions: 0 to 10 scale
# Method in brief: as §1
# sorghum = assay type: in vivo, Sorghum bicolor; conditions: 0 to 10 scale
# Method in brief: as §1
# wild buckwheat = assay type: in vivo, Polygonum convolvulus; conditions: POSTEMERGENCE, 0 to 10 scale
# Method in brief: as §1
# giant foxtail = assay type: in vivo, Setaria faberii; conditions: 0 to 10 scale
# Method in brief: as §1
# cheatgrass = assay type: in vivo, Bromus secalinus; conditions: 0 to 10 scale
# Method in brief: as §1
# crabgrass = assay type: in vivo, Digitaria spp.; conditions: 0 to 10 scale
# Method in brief: as §1
# wild oat = assay type: in vivo, Avena fatua; conditions: 0 to 10 scale
# Method in brief: as §1
# wheat = assay type: in vivo, Triticum aestivum; conditions: 0 to 10 scale
# Method in brief: as §1
# cotton = assay type: in vivo, Gossypium hirsutum; conditions: 0 to 10 scale
# Method in brief: as §1
# cocklebur = assay type: in vivo, Xanthium pensylvanicum; conditions: 0 to 10 scale
# Method in brief: as §1
# soybean = assay type: in vivo, Glycine max; conditions: 0 to 10 scale
# Method in brief: as §1
# blackgrass = assay type: in vivo, Alopecurus myosuroides; conditions: 0 to 10 scale
# Method in brief: as §1
# sugar beet = assay type: in vivo, Beta vulgaris; conditions: 0 to 10 scale
# Method in brief: as §1
# purple nutsedge = assay type: in vivo, Cyperus rotundus; conditions: 0 to 10 scale
# Method in brief: as §1
# velvetleaf = assay type: in vivo, Abutilon theophrasti; conditions: 0 to 10 scale
# Method in brief: as §1
# chickweed = assay type: in vivo, Stellaria media; conditions: 0 to 10 scale
# Method in brief: as §1
# corn = assay type: in vivo, Zea mays; conditions: 0 to 10 scale
# Method in brief: as §1
# lambsquarters = assay type: in vivo, Chenopodium album; conditions: 0 to 10 scale
# Method in brief: as §1
# barley = assay type: in vivo, Hordeum vulgare; conditions: 0 to 10 scale
# Method in brief: as §1
# rice = assay type: in vivo, Oryza sativa; conditions: 0 to 10 scale
# Method in brief: as §1
# bedstraw = assay type: in vivo, Galium aparine; conditions: 0 to 10 scale
# Method in brief: as §1
smiles,measurement,setting,value
CCCCN1C(=O)COc2cc(F)c(-c3nn4c(c3Cl)CCCC4)cc21 [Compound 57],"Plant response rating, Barnyardgrass","barnyardgrass; POSTEMERGENCE, Rate 10 g/ha",3
same,"Plant response rating, Barnyardgrass","barnyardgrass; POSTEMERGENCE, Rate 50 g/ha",3
same,"Plant response rating, Barnyardgrass","barnyardgrass; PREEMERGENCE, Rate 10 g/ha",0
same,"Plant response rating, Barnyardgrass","barnyardgrass; PREEMERGENCE, Rate 50 g/ha",3
same,"Plant response rating, Morningglory","morningglory; POSTEMERGENCE, Rate 10 g/ha",10
same,"Plant response rating, Morningglory","morningglory; POSTEMERGENCE, Rate 50 g/ha",10
same,"Plant response rating, Morningglory","morningglory; PREEMERGENCE, Rate 50 g/ha",10
same,"Plant response rating, Rape","rape; POSTEMERGENCE, Rate 10 g/ha",10
same,"Plant response rating, Rape","rape; POSTEMERGENCE, Rate 50 g/ha",10
same,"Plant response rating, Rape","rape; PREEMERGENCE, Rate 50 g/ha",0
same,"Plant response rating, Sorghum","sorghum; POSTEMERGENCE, Rate 10 g/ha",2
same,"Plant response rating, Sorghum","sorghum; POSTEMERGENCE, Rate 50 g/ha",4
same,"Plant response rating, Sorghum","sorghum; PREEMERGENCE, Rate 50 g/ha",0
same,"Plant response rating, Wild buckwheat",wild buckwheat; Rate 10 g/ha,10
same,"Plant response rating, Wild buckwheat",wild buckwheat; Rate 50 g/ha,10
same,"Plant response rating, Giant foxtail","giant foxtail; POSTEMERGENCE, Rate 10 g/ha",5
same,"Plant response rating, Giant foxtail","giant foxtail; POSTEMERGENCE, Rate 50 g/ha",6
same,"Plant response rating, Giant foxtail","giant foxtail; PREEMERGENCE, Rate 10 g/ha",0
same,"Plant response rating, Giant foxtail","giant foxtail; PREEMERGENCE, Rate 50 g/ha",2
same,"Plant response rating, Cheatgrass","cheatgrass; POSTEMERGENCE, Rate 10 g/ha",4
same,"Plant response rating, Cheatgrass","cheatgrass; POSTEMERGENCE, Rate 50 g/ha",6
same,"Plant response rating, Cheatgrass","cheatgrass; PREEMERGENCE, Rate 10 g/ha",3
same,"Plant response rating, Cheatgrass","cheatgrass; PREEMERGENCE, Rate 50 g/ha",5
same,"Plant response rating, Crabgrass","crabgrass; POSTEMERGENCE, Rate 10 g/ha",2
same,"Plant response rating, Crabgrass","crabgrass; POSTEMERGENCE, Rate 50 g/ha",3
same,"Plant response rating, Crabgrass","crabgrass; PREEMERGENCE, Rate 10 g/ha",0
same,"Plant response rating, Crabgrass","crabgrass; PREEMERGENCE, Rate 50 g/ha",0
same,"Plant response rating, Wild oat","wild oat; POSTEMERGENCE, Rate 10 g/ha",4
same,"Plant response rating, Wild oat","wild oat; POSTEMERGENCE, Rate 50 g/ha",7
same,"Plant response rating, Wild oat","wild oat; PREEMERGENCE, Rate 50 g/ha",5
same,"Plant response rating, Wheat","wheat; POSTEMERGENCE, Rate 10 g/ha",7
same,"Plant response rating, Wheat","wheat; POSTEMERGENCE, Rate 50 g/ha",7
same,"Plant response rating, Wheat","wheat; PREEMERGENCE, Rate 50 g/ha",2
same,"Plant response rating, Cotton","cotton; POSTEMERGENCE, Rate 10 g/ha",10
same,"Plant response rating, Cotton","cotton; POSTEMERGENCE, Rate 50 g/ha",10
same,"Plant response rating, Cotton","cotton; PREEMERGENCE, Rate 10 g/ha",0
same,"Plant response rating, Cotton","cotton; PREEMERGENCE, Rate 50 g/ha",2
same,"Plant response rating, Cocklebur","cocklebur; POSTEMERGENCE, Rate 10 g/ha",9
same,"Plant response rating, Cocklebur","cocklebur; POSTEMERGENCE, Rate 50 g/ha",9
same,"Plant response rating, Cocklebur","cocklebur; PREEMERGENCE, Rate 10 g/ha",0
same,"Plant response rating, Cocklebur","cocklebur; PREEMERGENCE, Rate 50 g/ha",3
same,"Plant response rating, Soybean","soybean; POSTEMERGENCE, Rate 10 g/ha",6
same,"Plant response rating, Soybean","soybean; POSTEMERGENCE, Rate 50 g/ha",8
same,"Plant response rating, Soybean","soybean; PREEMERGENCE, Rate 50 g/ha",0
same,"Plant response rating, Blackgrass","blackgrass; POSTEMERGENCE, Rate 10 g/ha",4
same,"Plant response rating, Blackgrass","blackgrass; POSTEMERGENCE, Rate 50 g/ha",7
same,"Plant response rating, Blackgrass","blackgrass; PREEMERGENCE, Rate 10 g/ha",3
same,"Plant response rating, Blackgrass","blackgrass; PREEMERGENCE, Rate 50 g/ha",6
same,"Plant response rating, Sugar beet","sugar beet; POSTEMERGENCE, Rate 10 g/ha",10
same,"Plant response rating, Sugar beet","sugar beet; POSTEMERGENCE, Rate 50 g/ha",10
same,"Plant response rating, Sugar beet","sugar beet; PREEMERGENCE, Rate 50 g/ha",9
same,"Plant response rating, Nutsedge","purple nutsedge; POSTEMERGENCE, Rate 10 g/ha",2
same,"Plant response rating, Nutsedge","purple nutsedge; POSTEMERGENCE, Rate 50 g/ha",4
same,"Plant response rating, Nutsedge","purple nutsedge; PREEMERGENCE, Rate 50 g/ha",0
same,"Plant response rating, Velvetleaf","velvetleaf; POSTEMERGENCE, Rate 10 g/ha",6
same,"Plant response rating, Velvetleaf","velvetleaf; POSTEMERGENCE, Rate 50 g/ha",9
same,"Plant response rating, Velvetleaf","velvetleaf; PREEMERGENCE, Rate 50 g/ha",10
same,"Plant response rating, Chickweed","chickweed; POSTEMERGENCE, Rate 10 g/ha",8
same,"Plant response rating, Chickweed","chickweed; POSTEMERGENCE, Rate 50 g/ha",10
same,"Plant response rating, Chickweed","chickweed; PREEMERGENCE, Rate 10 g/ha",6
same,"Plant response rating, Chickweed","chickweed; PREEMERGENCE, Rate 50 g/ha",9
same,"Plant response rating, Corn","corn; POSTEMERGENCE, Rate 10 g/ha",3
same,"Plant response rating, Corn","corn; POSTEMERGENCE, Rate 50 g/ha",4
same,"Plant response rating, Corn","corn; PREEMERGENCE, Rate 50 g/ha",0
same,"Plant response rating, Lambsquarter","lambsquarters; POSTEMERGENCE, Rate 10 g/ha",9
same,"Plant response rating, Lambsquarter","lambsquarters; POSTEMERGENCE, Rate 50 g/ha",10
same,"Plant response rating, Lambsquarter","lambsquarters; PREEMERGENCE, Rate 50 g/ha",10
same,"Plant response rating, Barley","barley; POSTEMERGENCE, Rate 10 g/ha",4
same,"Plant response rating, Barley","barley; POSTEMERGENCE, Rate 50 g/ha",4
same,"Plant response rating, Barley","barley; PREEMERGENCE, Rate 10 g/ha",0
same,"Plant response rating, Barley","barley; PREEMERGENCE, Rate 50 g/ha",0
same,"Plant response rating, Rice","rice; POSTEMERGENCE, Rate 10 g/ha",3
same,"Plant response rating, Rice","rice; POSTEMERGENCE, Rate 50 g/ha",3
same,"Plant response rating, Rice","rice; PREEMERGENCE, Rate 50 g/ha",0
same,"Plant response rating, Bedstraw","bedstraw; POSTEMERGENCE, Rate 10 g/ha",9
same,"Plant response rating, Bedstraw","bedstraw; POSTEMERGENCE, Rate 50 g/ha",9
same,"Plant response rating, Bedstraw","bedstraw; PREEMERGENCE, Rate 10 g/ha",6
same,"Plant response rating, Bedstraw","bedstraw; PREEMERGENCE, Rate 50 g/ha",8
